Data on two molecules can be found in patent US20250109107A1, “AROMATIC RING-FUSED HETEROCYCLIC RING COMPOUND AS POTASSIUM CHANNEL REGULATOR, AND PREPARATION THEREFOR AND USE THEREOF” (Shanghai Zhimeng Biopharma, Inc., priority 2022, published 2025).

Molecules are shown by their SMILES.

In general, EC50 refers to the midpoint of the concentration-response curve. Higher therefore signals weaker potency.

The assay concerns the target T1, KCNQ2 potassium channels (CHO-KCNQ2 cells) (Homo sapiens, UniProt O43526).
T1 construct: expressed in transfected cells; host or cells: CHO cells stably expressing KCNQ2 (G418 selection in the culture medium)
In words: Potassium ion channel opener activity test (FDSS/μCELL detection, FluxOR thallium flux). It counts as cell-based. The conditions noted are these: for EC50: 8 concentrations 0.045-100 μM, 3 replicate wells; for Maximum agonist rate (%): highest test concentration 100 μM, ratio of 180 s. The method, then: Example A1 Potassium Ion Channel Opener Activity Test (FDSS/p CELL Detection)
Cell preparation: CHO-KCNQ2 cells were cultured in a 175 cm^2 culture flask, and when the cell density grew to 60˜80%, the culture medium was removed and the cells were washed once with 7 mL PBS (Phosphate Buffered Saline), and then 3 mL of 0.25% Trypsin was added for digestion. After completion of digestion, 7 mL of culture medium (90% DMEM/F12+10% FBS+500 μg/mL G418) was added to neutralize, and centrifuged at 800 rpm for 3 min; the supernatant was aspirated, then 5 mL of culture medium was added to resuspend the cells, and the cells were counted.
Cell spreading: according to the cell counting results, the density was adjusted to 3×10^4 cells/well. After standing at room temperature for 30 minutes, the cells were placed in a CO2 incubator at 37° C. overnight, and incubated for 16-18 hours to reach a cell density of about 80%.
Fluorescent dye incubation: Cell culture solution was discarded, 80 μL/well of loading buffer was added and the cells were incubated for 60 minutes at room temperature and protected from light.
Compound incubation: Loading buffer was discarded, 80 μL/well of prepared compound solution was added, and the cells were incubated for 20 min at room temperature and protected from light.
Fluorescence data acquisition: Real-time fluorescence signal recording was performed using an FDSS/pCELL instrument with an excitation wavelength of 480 nm and an emission wavelength of 540 nm, and the signal was recorded once per second. 10 seconds of the baseline was recorded, then 20 μL/well of stimulation buffer was added, and the recording was continued until the end of 180 seconds.
Loading buffer: 10 mL/plate, prepared as follows:
Stimulation buffer: 5 mL/plate, prepared as follows:
The above buffers were obtained from a commercially available kit called FluxOR potassium ion channel assay.
20 mM stock solution of compound in DMSO was prepared, 10 μL of 20 mM compound stock solution was taken into 20 μL of DMSO solution, and a 3-fold serial dilution was performed to form 8 intermediate concentrations; then the intermediate concentrations of the compounds were taken respectively into test buffer, and a 200-fold dilution was performed to obtain the final concentration to be tested, and 80 μL of compound was taken and added to the assay plate.
The highest test concentration was 100 μM, and there was a total of8 concentrations. i.e., 100, 33.33, 11.11, 3.70, 1.23, 0.41, 0.137, 0.045 μM, respectively, with 3 replicate wells for each concentration.
The experimental data were analyzed by Excel 2007, GraphPad Prism 5.0 software, and the ratio of 180 s was counted to calculate the agonistic effect. The compound agonistic effect was calculated by the following equation: […]

T1 sequence (O43526 whole entry): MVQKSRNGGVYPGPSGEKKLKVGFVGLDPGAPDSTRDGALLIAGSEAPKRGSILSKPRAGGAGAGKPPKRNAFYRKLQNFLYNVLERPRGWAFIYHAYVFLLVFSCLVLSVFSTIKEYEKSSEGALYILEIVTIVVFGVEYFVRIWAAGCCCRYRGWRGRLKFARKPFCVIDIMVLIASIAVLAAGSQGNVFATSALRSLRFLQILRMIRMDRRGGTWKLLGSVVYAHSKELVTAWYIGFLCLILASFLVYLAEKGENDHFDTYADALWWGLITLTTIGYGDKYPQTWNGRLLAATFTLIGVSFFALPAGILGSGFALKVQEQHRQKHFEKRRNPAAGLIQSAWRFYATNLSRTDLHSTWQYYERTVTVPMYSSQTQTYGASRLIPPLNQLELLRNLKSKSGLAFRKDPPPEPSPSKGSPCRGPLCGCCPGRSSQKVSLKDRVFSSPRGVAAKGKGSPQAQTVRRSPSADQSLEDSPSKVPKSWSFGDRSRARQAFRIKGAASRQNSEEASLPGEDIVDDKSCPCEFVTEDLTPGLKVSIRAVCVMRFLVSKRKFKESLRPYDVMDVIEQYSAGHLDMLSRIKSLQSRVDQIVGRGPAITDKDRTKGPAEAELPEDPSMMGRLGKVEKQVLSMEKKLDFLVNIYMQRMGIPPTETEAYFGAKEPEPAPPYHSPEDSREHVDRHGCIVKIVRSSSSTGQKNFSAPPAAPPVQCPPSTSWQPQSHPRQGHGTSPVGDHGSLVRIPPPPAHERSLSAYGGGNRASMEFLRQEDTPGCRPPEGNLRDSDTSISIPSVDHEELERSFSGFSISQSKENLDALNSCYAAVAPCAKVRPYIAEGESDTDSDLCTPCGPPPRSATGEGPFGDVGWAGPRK

Consider `Cc1cc2c(c(C)c1NC(=O)CC1(C)CC1)CN(c1ccc(F)cc1)CC2` [Compound 3001], for which the EC50 was determined as 400 nM and the “Maximum agonist rate (%)” value is listed as 36.30%.
In the same order, the values of `Cc1cc2c(c(C)c1NC(=O)CC1(C)CC1)CN(c1ccc(C(F)(F)F)cc1)CC2` [Compound 3002] are 59 nM and 38.96%.
